# Data: patent publication US5859067A, “Use of natural products and related synthetic compounds for the treatment of cardiovascular disease” (priority 1993, dated 1999)
# Several values for one entry are separate records, joined by “and”; a condition that tells them apart may be missing. Equal entries are not always repeated. Where two headings read alike, the source gives them in different places.
# What was measured:
# [1] = target: T1, human erythrocyte plasma membrane Ca^2+ -ATPase (Homo sapiens, UniProt P23634); test: Ca^2+ -ATPase assay (erythrocyte membranes; Table 1); format: biochemical; conditions: for inhibition at 25 µM / inhibition at 100 µM: read-out: INHIBITION OF Ca^2+ -ATPase PERCENT (%); for Ca^2+ -ATPase inhibitory activity relative to striatol: compared with natural product striatol
# T1 construct: Calmodulin-depleted erythrocyte membranes were prepared by continuous filtration through a hollow fibre; tissue New South Wales Red Cross Transfusion Service, Sydney; host or cells: human packed red blood cells (calmodulin-depleted erythrocyte membranes)
# T1 sequence (P23634 1-1205 isoform P23634-6): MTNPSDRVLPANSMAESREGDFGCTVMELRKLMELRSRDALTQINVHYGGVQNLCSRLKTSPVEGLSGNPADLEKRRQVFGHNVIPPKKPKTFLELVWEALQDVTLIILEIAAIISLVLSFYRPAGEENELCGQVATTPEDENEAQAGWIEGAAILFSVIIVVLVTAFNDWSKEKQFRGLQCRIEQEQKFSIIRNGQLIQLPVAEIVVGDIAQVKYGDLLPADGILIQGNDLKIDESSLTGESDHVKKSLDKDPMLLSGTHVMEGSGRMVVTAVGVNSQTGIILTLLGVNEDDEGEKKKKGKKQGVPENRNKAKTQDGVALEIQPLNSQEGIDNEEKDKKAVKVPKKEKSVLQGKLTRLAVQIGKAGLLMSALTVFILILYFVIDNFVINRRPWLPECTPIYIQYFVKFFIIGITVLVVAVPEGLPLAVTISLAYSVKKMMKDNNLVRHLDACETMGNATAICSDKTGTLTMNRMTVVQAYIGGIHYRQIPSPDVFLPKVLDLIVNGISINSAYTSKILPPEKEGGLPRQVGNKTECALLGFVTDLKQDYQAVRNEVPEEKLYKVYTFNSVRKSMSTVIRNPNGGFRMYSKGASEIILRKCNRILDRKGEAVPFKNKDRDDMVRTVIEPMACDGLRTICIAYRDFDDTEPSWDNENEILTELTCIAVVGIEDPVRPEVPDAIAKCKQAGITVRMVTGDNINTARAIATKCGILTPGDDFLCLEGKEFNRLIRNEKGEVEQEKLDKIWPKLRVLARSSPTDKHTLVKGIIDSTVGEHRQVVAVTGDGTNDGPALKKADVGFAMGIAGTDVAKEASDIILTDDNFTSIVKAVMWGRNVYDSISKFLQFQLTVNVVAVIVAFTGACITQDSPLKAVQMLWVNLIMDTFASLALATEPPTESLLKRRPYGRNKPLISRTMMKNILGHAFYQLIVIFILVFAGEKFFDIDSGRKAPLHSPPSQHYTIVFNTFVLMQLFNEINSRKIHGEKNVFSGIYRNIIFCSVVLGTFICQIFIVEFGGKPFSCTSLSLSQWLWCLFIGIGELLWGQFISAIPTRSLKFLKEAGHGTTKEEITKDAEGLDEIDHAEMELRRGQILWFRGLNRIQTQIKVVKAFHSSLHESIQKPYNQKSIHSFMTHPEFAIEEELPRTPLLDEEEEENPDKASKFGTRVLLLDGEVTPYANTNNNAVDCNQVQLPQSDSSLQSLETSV
# T1 sequence (P35613 140-385 partner limits assumed): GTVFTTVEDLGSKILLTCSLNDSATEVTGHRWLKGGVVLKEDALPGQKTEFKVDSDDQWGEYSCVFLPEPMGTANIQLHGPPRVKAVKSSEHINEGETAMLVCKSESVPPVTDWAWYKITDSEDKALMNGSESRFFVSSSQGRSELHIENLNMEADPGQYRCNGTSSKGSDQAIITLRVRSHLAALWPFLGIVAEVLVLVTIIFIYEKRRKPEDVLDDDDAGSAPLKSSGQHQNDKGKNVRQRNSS
# Method: Natural and synthetic compounds of formula (I) were tested for their ability to influence human erythrocyte plasma membrane Ca^2+ -ATPase.
# (§1) Packed cells were obtained from the New South Wales Red Cross Transfusion Service, Sydney. The whole preparation was carried out at 4° C. 1 unit of packed red cells was washed 3 times with isotonic buffer, containing 130 mM KCl, 20 mM Tris-HCl (pH 7.4), and the cells were collected by centrifugation at 4,000 RPM. The cells were haemolysed by the buffer containing 1 mM EDTA, 10 mM Tris-Hcl (pH 7.4), 0.5 mM PMSF (phenylmethyl sulfonyl fluoride). The haemolyzate mixture was passed through the hollow fibre system until the membrane appeared white, and then washed with 10 mM potassium Hepes (pH 7.4). The membranes were collected by centrifugation at 10,000 RPM for 20 min, the membranes were resuspended in storage buffer containing 130 mM KCl, 2 mM dithiothreitol, 0.5 mM MgCl2, 20 mM potassium-Hepes (pH 7.5). The membranes with protein concentration of 1.5-5.4 mg/ml were stored at -80° C. until required.
# Erythrocyte membranes (0.071-0.098 mg/ml) were incubated at 37° C. for one hour in a total volume of 0.4 ml of 65 mM KCl, 20 mM potassium-Hepes, 5 mM MgCl2, 50 μM CaCl2, 0.1 μm calmodulin, 0.1 mM EGTA. The reaction was started by adding 2 mM ATP(pH 7.4). […] The activity of the Mg^2+ -ATPase (assayed in the absence of added CaCl2) was subtracted from the total activity assayed in the presence of Ca^2+. […] A concentrated solution of the test substances was added to the reaction medium before adding ATP.
# [2] = target: T1, human erythrocyte plasma membrane Ca^2+ -ATPase; test: Ca^2+ -ATPase assay (microplate method), absence (-CaM) and presence (+CaM) of calmodulin (Table 1A); format: biochemical
# Method: Natural and synthetic compounds of formula (I) were tested for their ability to influence human erythrocyte plasma membrane Ca^2+ -ATPase. The enzyme Ca^2+ -ATPase in the human red blood cell plasma membrane has previously been studied and its stimulation by calmodulin and activation by lipids and proteolysis and its primary structure have been published (see Carafoli E (1991) Calcium pump of the plasma membrane, Physiological Reviews 71, 129-153.
# as §1, with “Calmodulin-depleted erythrocyte membranes were prepared by continuous filtration through a hollow fibre, Ashahi plasma separator as described by W S Price, B D Roufogalis, P W Kuchel (1989), A simple and inexpensive method for preparing erythrocyte membranes by filtration through a hollow-filter system, Anal. Biochem., 179, 190-193. Packed” for “Packed”
# Erythrocyte membranes were incubated at 37° C. for one hour in a total volume of 60 μl of 65 mM KCl, 50 mM HEPES (pH=7.4), 5 mM MgCl2, 50 μM CaCl2, 0.1 mM EGTA and in absence and presence of calmodulin (0.3 μM). Test compounds were dissolved in dimethyl sulfoxide DMSO and 2 μl was added to the assay mixture prior the addition of ATP. The final concentration of DMSO in the assay mixture was 3%. The reaction was started by adding 2 mM ATP (pH=7.4). After 1 hour of incubation, colouring agent (180 μl) was added and incubated at 37° C. for 1/2 hrs. The phosphate liberated to the assay medium was determined spectrometrically using a microplate reader at 750 nm. The activity of the Mg^2+ -ATPase (assayed in the absence of added CaCl2) was subtracted from the total activity assayed in the presence of Ca^2+.
# [3] = tested on: brine shrimp (Artemia salina Leach); test: Brine shrimp toxicity bioassay; format: in vivo; conditions: for LC50: Artemia salina, read-out: LC50 brine shrimp
# Method: There are many applications of the assay including analysis of toxic substances, anaesthetics, morphine-like substances and cocarcinogenicity of phorbol esters.
# 6 (K Hostettman, ed.), Academ Press, London, 1-32. DMSO solutions of the substances to be tested were added directly to the vials containing the brine shrimp. As the concentration of DMSO that we wished to use was higher than the recommended 1% v/v testing of the toxicity of the DMSO was therefore necessary.
# Brine shrimp toxicity was assayed, except for some minor modifications, according to the method of McLaughlin et al as reported in Brine Shrimp: A convenient general bioassay for active plant constituents, B N Meyer, N R Ferrigni, J E Putman, L B Jacobsen, D E Nhols and J L McLaughlin. […] J L McLaughlin. […] 6 (K Hostettman, ed.), Academ Press, London, 1-32. Ten shrimp were added transferred to each of the vials and the volume adjusted to 4.9 mL. Each dose was performed in triplicate, including the control. In quick succession, the appropriate volume of additional DMSO for each dose, required to achieve a final concentration of 2%, was added before the appropriate volume of test solution. The vials were gently mixed and the time noted. After 24 hours, the number of survivors were counted and % mortality was determined.
# The LC50 values were expressed in both μM and μg/mL.
# [4] = tested on: brine shrimp (Artemia salina Leach); conditions: determined by Meyer et al.; cited from earlier work
# [5] = tested on: purified erythrocyte Ca^2+ -ATPase; test: Inhibition of purified erythrocyte Ca^2+ -ATPase; format: biochemical; conditions: purified enzyme
# [6] = tested on: ^45 Ca^2+ efflux from rat thoracic aorta smooth muscle cells; test: ^45 Ca^2+ efflux from cultured vascular smooth muscle cells; format: cell-based
# Excerpt: ^45 Ca efflux from cultured vascular smooth muscle cells consists of two major mechanisms; one is dependent on extracellular sodium, mediated by the Na^+ -Ca^2+ exchanger (Na^+ - dependent Ca^2+ efflux), and the other is independent of extracellular sodium but is mediated by the Ca^2+ pump (Na^+ - independent Ca^2+ efflux). The effect of striatol on the efflux of calcium (^45 Ca^2+) from rat thoracic aorta smooth muscle cells in culture was studied. ^45 Ca^2+ efflux is a measure of plasma membrane Ca^2+ -ATPase (plus Na^+ : Ca^2+ exchange) in intact (whole) cells.
# [7] = read-out: INHIBITION OF Ca^2+ -ATPase IC50
# [8] = absence of calmodulin, read-out: IC50 (-CaM)
# [9] = presence of calmodulin (0.3 μM), read-out: IC50 (+CaM)
Structure (SMILES),"IC50 [1, 7] [µM]","IC50 [2, 8] [µM]","IC50 [2, 9] [µM]",Ca^2+ -ATPase inhibitory activity (in words) [1],LC50 ([3]; 24 hours),also measured
"COc1cc([C@@H]2c3cc4c(cc3[C@H](O)[C@H]3COC(=O)[C@H]23)OCO4)cc(OC)c1OC [podophyllotoxin, reference compound]",–,–,–,–,–,LC50 ([3]; 24 h): 3.8 µM and 1.6 µg/mL; LC50 [4]: 5.8 µM; LC50 brine shrimp (Meyer et al.) [4]: 2.4 µg/mL
"Oc1ccccc1CCCCCCCCCCc1ccccc1O [1,10-bis(2-hydroxyphenyl)decane]",7.6,8.4,9,strongest Ca^2+ -ATPase inhibition among the synthesised phenolic compounds,1.9 µM and 0.62 µg/mL,inhibition at 25 µM [1]: 100%; Ca^2+ -ATPase inhibitory activity relative to striatol [1]: two-fold higher; Ca^2+ -ATPase inhibitory activity (in words) [2]: most potent inhibitors of plasma Ca^2+ -ATPase among the synthesised substances; toxicity to brine shrimp (in words) ([3]; 24 hours): moderately toxic
"Oc1ccc2ccccc2c1CCCCCCCCCCc1c(O)ccc2ccccc12 [1,10-bis(2-hydroxy-1-naphthyl)decane]",–,92,90,–,> 25 µM and > 11 µg/mL,–
"Oc1ccc(CCCCCCCCCCCCc2ccc(O)cc2O)c(O)c1 [1,12-bis(2,4-dihydroxyphenyl)dodecane]",–,12,20,–,14 µM and 5.4 µg/mL,–
CCCCCCCCCc1ccccc1O [2-nonylphenol],–,–,–,–,–,"IC50 [1]: 30 µM; inhibition at 100 µM [1]: 95%; IC50 ([2]; IC50 (+CaM), presence of calmodulin (0.3 μM)): 40 µM; IC50 ([2]; IC50 (-CaM), absence of calmodulin): 36 µM; LC50 ([3]; 24 h): 480 nM and 0.11 µg/mL"

# Second part, led by results:
"IC50 [1, 7] [µM]","IC50 [2, 8] [µM]","IC50 [2, 9] [µM]",Structure (SMILES),Ca^2+ -ATPase inhibitory activity (in words) [1],LC50 ([3]; 24 hours),also measured
8.3,12.5,13,"Oc1ccccc1CCCCCCCCCCCCc1ccccc1O [1,12-bis(2-hydroxyphenyl)dodecane]",strongest Ca^2+ -ATPase inhibition among the synthesised phenolic compounds,2.6 µM and 0.94 µg/mL,inhibition at 25 µM [1]: 100%; Ca^2+ -ATPase inhibitory activity relative to striatol [1]: two-fold higher
16,–,–,"Cc1c(O)cc(CCCCCCCCCCCCCCc2cc(O)c(C)c(O)c2)cc1O [striatol, 1,14-bis(3,5-dihydroxy-4-methylphenyl)tetradecane]",–,11 µM and 4.9 µg/mL,"inhibition at 100 µM ([1]; at 100 μM): 98%; inhibitory activity with purified erythrocyte Ca^2+ -ATPase [5]: confirmed; inhibition of ^45 Ca^2+ efflux ([6]; 20 μM, 5 min): partial inhibition; inhibition of ^45 Ca^2+ efflux ([6]; 20 μM, 10 min): partial inhibition; inhibition of ^45 Ca^2+ efflux ([6]; 50 μM, 30 min): complete inhibition; toxicity to brine shrimp (in words) ([3]; 24 hours): relatively low toxicity"
–,125,–,CCCCCCCCCc1ccc(O)cc1O [4-nonylresorcinol],–,10 µM and 2.4 µg/mL,–
69,80,100,"CCCCCCCCCCCCc1ccc(O)cc1O [4-dodecylresorcinol, reference compound]",most potent among the alkylresorcinols tested,8.8 µM and 2.4 µg/mL,inhibition at 100 µM ([1]; at 100 μM): 68%
